Laboratory results reported in publication PMC10692473 (Acta Pharmaceutica Sinica. B, 2023).
≈ marks a conversion by molar mass, not a printed value.

Key:
S. aureus gyrase = S. aureus gyrase (Staphylococcus aureus, UniProt P0A0K8); test: Gyrase inhibitory assay; type: biochemical
E. coli gyrase = E. coli gyrase (Escherichia coli, UniProt P0AES6); test: Gyrase inhibitory assay; type: biochemical
S. aureus Topo IV = S. aureus Topo IV (Staphylococcus aureus, UniProt P0C1S7); test: Topo IV inhibitory assay; type: biochemical
S. aureus Topo IV, sequence (P0C1S7 whole entry): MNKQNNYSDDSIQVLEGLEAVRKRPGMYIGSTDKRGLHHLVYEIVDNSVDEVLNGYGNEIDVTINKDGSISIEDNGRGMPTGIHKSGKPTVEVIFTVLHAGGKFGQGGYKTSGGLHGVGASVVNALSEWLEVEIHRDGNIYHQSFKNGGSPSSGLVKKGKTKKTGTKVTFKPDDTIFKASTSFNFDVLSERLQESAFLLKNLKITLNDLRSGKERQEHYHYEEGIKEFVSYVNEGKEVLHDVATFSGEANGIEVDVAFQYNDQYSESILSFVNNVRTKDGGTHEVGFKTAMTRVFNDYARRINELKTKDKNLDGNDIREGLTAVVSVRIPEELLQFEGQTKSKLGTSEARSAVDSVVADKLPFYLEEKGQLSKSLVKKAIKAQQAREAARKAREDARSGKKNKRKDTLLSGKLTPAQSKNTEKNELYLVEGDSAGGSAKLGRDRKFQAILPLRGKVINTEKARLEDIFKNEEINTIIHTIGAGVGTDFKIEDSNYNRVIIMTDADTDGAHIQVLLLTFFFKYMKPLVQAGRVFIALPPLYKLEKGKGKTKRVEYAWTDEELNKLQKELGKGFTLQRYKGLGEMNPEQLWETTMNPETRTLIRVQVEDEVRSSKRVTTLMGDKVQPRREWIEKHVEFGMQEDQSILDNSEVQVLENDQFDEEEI
S. aureus Topo IV, sequence (P0C1U9 whole entry partner): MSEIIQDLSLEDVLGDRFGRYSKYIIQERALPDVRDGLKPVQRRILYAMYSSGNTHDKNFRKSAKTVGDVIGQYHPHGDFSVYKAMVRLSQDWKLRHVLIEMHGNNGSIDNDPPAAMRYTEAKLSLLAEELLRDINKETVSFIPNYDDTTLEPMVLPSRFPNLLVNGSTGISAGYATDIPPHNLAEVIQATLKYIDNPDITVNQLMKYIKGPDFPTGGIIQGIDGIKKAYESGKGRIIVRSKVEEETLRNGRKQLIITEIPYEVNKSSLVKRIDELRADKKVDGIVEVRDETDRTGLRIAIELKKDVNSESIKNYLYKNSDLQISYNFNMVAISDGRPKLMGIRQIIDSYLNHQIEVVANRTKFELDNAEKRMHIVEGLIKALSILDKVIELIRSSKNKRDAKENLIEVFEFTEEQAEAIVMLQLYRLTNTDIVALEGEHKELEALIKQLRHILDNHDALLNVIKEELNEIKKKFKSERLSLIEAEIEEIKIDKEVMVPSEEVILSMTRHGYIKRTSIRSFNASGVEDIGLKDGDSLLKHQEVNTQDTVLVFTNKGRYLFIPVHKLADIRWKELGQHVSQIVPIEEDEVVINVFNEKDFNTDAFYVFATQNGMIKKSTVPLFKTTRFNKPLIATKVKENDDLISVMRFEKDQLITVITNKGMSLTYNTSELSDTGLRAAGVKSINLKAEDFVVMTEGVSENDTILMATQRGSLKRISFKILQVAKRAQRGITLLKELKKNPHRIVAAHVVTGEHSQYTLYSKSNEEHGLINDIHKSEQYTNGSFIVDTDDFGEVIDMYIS

E. coli Topo IV = E. coli Topo IV (Escherichia coli, UniProt P20083); test: Topo IV inhibitory assay; type: biochemical
E. coli Topo IV, sequence (P20083 whole entry): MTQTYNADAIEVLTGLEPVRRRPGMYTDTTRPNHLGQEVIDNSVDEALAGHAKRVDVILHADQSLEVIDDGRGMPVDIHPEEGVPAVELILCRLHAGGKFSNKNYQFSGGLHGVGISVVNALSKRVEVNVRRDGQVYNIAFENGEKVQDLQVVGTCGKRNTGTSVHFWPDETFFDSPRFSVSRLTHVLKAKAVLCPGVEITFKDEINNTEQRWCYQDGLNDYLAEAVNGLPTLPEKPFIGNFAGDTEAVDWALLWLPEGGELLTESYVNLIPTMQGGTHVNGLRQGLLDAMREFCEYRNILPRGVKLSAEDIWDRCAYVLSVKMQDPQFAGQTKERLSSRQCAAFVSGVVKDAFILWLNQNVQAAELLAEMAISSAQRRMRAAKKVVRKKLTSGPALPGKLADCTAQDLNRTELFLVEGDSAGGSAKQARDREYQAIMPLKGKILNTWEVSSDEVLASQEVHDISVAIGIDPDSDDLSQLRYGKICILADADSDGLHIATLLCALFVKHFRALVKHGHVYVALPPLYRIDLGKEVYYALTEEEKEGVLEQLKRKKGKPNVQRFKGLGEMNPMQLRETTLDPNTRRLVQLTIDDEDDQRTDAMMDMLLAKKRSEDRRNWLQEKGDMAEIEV
E. coli Topo IV, sequence (P0AFI2 whole entry partner): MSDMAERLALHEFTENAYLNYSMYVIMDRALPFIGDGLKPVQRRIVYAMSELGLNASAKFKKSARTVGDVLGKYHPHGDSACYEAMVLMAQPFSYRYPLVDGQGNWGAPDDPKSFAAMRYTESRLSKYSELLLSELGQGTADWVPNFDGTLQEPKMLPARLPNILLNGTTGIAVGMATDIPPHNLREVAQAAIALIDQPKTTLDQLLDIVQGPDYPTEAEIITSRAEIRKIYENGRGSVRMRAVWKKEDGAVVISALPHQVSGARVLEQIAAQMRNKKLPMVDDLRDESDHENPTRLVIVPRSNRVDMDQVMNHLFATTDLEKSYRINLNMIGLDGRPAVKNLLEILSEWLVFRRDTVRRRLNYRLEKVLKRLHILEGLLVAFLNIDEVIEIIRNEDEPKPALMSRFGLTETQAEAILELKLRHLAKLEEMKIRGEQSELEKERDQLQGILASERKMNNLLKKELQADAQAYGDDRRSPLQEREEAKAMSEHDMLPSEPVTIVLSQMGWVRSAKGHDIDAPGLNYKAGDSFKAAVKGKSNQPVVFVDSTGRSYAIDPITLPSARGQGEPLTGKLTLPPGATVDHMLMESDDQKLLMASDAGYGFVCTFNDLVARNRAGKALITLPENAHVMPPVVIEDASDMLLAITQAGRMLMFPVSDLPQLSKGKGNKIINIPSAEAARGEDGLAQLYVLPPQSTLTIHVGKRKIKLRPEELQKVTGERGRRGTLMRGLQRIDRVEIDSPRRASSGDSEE

S. aureus GyrB24 = S. aureus GyrB24 (Staphylococcus aureus, UniProt P0A0K8); test: Surface plasmon resonance; type: binding
S. aureus GyrB24, sequence (P0A0K8 2-220): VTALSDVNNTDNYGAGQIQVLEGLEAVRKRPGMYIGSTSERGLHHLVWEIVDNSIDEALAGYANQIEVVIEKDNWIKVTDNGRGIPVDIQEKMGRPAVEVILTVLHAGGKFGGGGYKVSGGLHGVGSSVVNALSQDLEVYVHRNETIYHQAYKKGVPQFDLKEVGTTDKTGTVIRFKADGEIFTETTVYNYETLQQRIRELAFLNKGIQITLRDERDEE

[1] = system: susceptible and resistant Gram-positive bacteria; test: Antibacterial spectrum; type: cell-based, S. aureus, S. epidermidis, E. faecalis, E. faecium; conditions: read-out: MIC against susceptible and resistant Gram-positive bacteria
[2] = system: methicillin-resistant S. aureus (ATCC43300); test: Mouse model of sepsis induced by MRSA; type: in vivo, ICR mice; conditions: 10 mg/kg ig, MRSA ATCC43300, observed 7 days
S. aureus (ATCC29213) [3] = test: Spontaneous drug resistance frequency; type: cell-based; conditions: S. aureus ATCC29213, 4 × MIC
[4] = system: methicillin-resistant S. aureus (ATCC43300); test: Spontaneous drug resistance frequency; type: cell-based; conditions: MRSA ATCC43300, 4 × MIC
S. aureus (ATCC29213) [5] = test: Time-killing curves / killing kinetic studies; type: cell-based; conditions: 4, 8, and 16 × MIC
hERG channel = hERG channel (Homo sapiens, UniProt Q12809); test: Inhibition evaluation on hERG K+ channel; type: cell-based
[6] = system: Salmonella typhimurium TA98 and TA100 strains; test: Mini-Ames test; type: cell-based
[7] = Mouse acute toxicity test; parameters: species or system ICR mice; conditions: both, ICR, in vivo
MRSA (ATCC43300) = test: Neutropenic murine thigh MRSA infection model; type: in vivo, ICR mice; conditions: 2.5 mg/kg iv, 24 h
[8] = Pharmacokinetics study on beagle dogs; type: in vivo
Cytotoxicity assay [9] = conditions: human, HK2 renal tubular epithelial cells
Cytotoxicity assay [10] = conditions: human, LO2 normal hepatocytes
Cytotoxicity assay [11] = conditions: human, HEK293 embryonic kidney cells
S. aureus ATCC43300 = test: Antibacterial spectrum; conditions: Staphylococcus aureus
S. aureus MRSA15-1 = test: Antibacterial spectrum; conditions: Staphylococcus aureus, MRSA151
S. aureus MRSA15-2 = test: Antibacterial spectrum; conditions: Staphylococcus aureus, MRSA152
S. aureus MSSA15-1 = test: Antibacterial spectrum; conditions: Staphylococcus aureus, MSSA151
S. aureus MSSA15-2 = test: Antibacterial spectrum; conditions: Staphylococcus aureus, MSSA152
S. aureus VISA5836 = test: Antibacterial spectrum; conditions: Staphylococcus aureus
S. aureus VISA5827 = test: Antibacterial spectrum; conditions: Staphylococcus aureus
S. epidermidis MRSE15-1 = test: Antibacterial spectrum; conditions: Staphylococcus epidermidis, MRSE151
S. epidermidis MRSE15-2 = test: Antibacterial spectrum; conditions: Staphylococcus epidermidis, MRSE152
S. epidermidis MSSE15-3 = test: Antibacterial spectrum; conditions: Staphylococcus epidermidis, MSSE153
E. faecalis ATCC51575 = test: Antibacterial spectrum; conditions: Enterococcus faecalis
E. faecalis ATCC51299 = test: Antibacterial spectrum; conditions: Enterococcus faecalis
E. faecium EFM19-1 = test: Antibacterial spectrum; conditions: Enterococcus faecium, EFM191
P. aeruginosa ATCC27853 = test: Antibacterial spectrum; conditions: Pseudomonas aeruginosa
A. baumannii ATCC19606 = test: Antibacterial spectrum; conditions: Acinetobacter baumannii
S. aureus (ATCC29213) [12] = test: Antibacterial assay; conditions: Staphylococcus aureus, ATCC29213, read-out: MIC S. aureus (ATCC29213)
E. coli (ATCC25922) = test: Antibacterial assay; conditions: Escherichia coli, ATCC25922, read-out: MIC E. coli (ATCC25922)
HepG2 cells = test: Mitochondrial toxicity; conditions: HepG2 cells, 50–800 μmol/L
[13] = both, beagle, dog, plasma, iv, 1 mg/kg
[14] = both, beagle, dog, plasma, po, 1 mg/kg

S. aureus gyrase, sequence (P0A0K8 whole entry): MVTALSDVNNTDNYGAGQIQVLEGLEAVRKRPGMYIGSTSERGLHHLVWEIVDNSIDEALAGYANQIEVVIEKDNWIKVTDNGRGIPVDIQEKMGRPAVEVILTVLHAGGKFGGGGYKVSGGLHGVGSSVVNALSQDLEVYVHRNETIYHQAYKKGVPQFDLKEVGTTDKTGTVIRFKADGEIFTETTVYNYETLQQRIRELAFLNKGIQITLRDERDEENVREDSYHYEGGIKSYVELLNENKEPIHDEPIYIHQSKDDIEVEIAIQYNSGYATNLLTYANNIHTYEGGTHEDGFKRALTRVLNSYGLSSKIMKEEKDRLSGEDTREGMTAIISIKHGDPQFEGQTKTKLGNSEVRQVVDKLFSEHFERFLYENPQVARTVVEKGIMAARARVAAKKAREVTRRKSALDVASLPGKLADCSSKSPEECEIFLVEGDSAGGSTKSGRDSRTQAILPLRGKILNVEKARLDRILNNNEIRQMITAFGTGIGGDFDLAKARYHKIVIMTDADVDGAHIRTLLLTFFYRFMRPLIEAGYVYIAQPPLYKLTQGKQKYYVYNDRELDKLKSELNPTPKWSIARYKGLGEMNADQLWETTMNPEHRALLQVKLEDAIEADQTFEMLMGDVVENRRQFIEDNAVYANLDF
S. aureus gyrase, sequence (P20831 whole entry partner): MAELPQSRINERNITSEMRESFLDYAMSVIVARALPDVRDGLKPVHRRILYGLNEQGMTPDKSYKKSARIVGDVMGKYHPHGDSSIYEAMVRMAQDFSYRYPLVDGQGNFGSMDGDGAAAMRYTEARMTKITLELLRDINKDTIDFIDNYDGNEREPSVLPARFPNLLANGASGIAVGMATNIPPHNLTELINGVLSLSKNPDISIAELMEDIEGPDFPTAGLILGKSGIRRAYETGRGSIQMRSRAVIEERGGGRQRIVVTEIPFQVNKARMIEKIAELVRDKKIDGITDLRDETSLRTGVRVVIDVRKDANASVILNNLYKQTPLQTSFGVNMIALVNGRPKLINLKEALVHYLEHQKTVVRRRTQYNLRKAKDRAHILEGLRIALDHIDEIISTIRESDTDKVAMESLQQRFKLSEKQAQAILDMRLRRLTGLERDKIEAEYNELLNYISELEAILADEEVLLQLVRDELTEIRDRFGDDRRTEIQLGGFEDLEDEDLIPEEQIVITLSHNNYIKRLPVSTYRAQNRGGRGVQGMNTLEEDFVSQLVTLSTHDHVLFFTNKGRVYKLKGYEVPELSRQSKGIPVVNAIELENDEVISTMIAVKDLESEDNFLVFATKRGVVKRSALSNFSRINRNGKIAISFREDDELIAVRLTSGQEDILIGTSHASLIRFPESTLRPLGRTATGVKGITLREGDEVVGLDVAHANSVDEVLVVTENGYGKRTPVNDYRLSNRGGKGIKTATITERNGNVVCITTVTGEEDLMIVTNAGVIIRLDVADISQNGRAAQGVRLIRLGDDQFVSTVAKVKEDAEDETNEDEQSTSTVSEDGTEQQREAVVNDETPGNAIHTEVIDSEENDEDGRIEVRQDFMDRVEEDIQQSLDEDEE

## CO[C@H]1CN(c2ccc(C(C)(C)O)nn2)CC[C@H]1NC(=O)c1[nH]c(C)c(Cl)c1Cl [Compound 28, 3,4-Dichloro-N-((3S,4R)-1-(6-(2-hydroxypropan-2-yl)pyridazin-3-yl)-3-methoxypiperidin-4-yl)-5-methyl-1H-pyrrole-2-carboxamide]
S. aureus gyrase
  IC50: 49 ± 5 nM
E. coli gyrase
  IC50: 1480 ± 441 nM
S. aureus Topo IV
  IC50: 1510 ± 460 nM
E. coli Topo IV
  IC50: > 10000 nM
S. aureus GyrB24
  Kd: 52 nM
[1]
  MIC: < 0.03 µg/mL
[2]
  protective effect / survival in mouse model of sepsis: survived
S. aureus (ATCC29213) [3]
  spontaneous resistance frequency: less than 8 × 10^–12
[4]
  spontaneous resistance frequency: < 4.3 × 10^–12
S. aureus (ATCC29213) [5]
  time-kill curve: time-dependent bactericidal effect
hERG channel
  IC50: > 30000 nM
[6]
  mutagenic effects in Mini-Ames test: did not show any mutagenic effects
[7]; ip
  LD50 at 7 days: > 300 mg/kg
[7]; iv
  LD50 at 7 days: > 100 mg/kg
[7]; po
  LD50 at 7 days: > 800 mg/kg
MRSA (ATCC43300)
  reduction of colony-forming unit (CFU) in the thigh: 3–4 log10
[8]; [13]
  Cmax: 5510 ng/mL
  MRT inf: 12.3 h
  MRT last: 9.79 h
  Tmax: 0.873 h
  clearance: 0.33 mL/min/kg
  half-life: 11.3 h
[8]; [14]
  Cmax: 3750 ng/mL
  MRT inf: 9.85 h
  MRT last: 9.07 h
  Tmax: 1.75 h
  bioavailability: 66.8%
  half-life: 8.53 h
[8]; iv (1 mg/kg)
  AUC0–48: 56,432.101 μg·h
  AUC0–∞: 58,890.621 μg·h
[8]; po (1 mg/kg)
  AUC0–48: 38,552.203 μg·h
  AUC0–∞: 39,362.651 μg·h
Cytotoxicity assay [9]
  IC50 at 48 h: > 10000 nM
Cytotoxicity assay [10]
  IC50 at 48 h: > 10000 nM
Cytotoxicity assay [11]
  IC50 at 48 h: > 10000 nM
S. aureus ATCC43300
  MIC: 0.015 µg/mL (≈ 0.0339 µM)
S. aureus MRSA15-1
  MIC: 0.015 µg/mL (≈ 0.0339 µM)
S. aureus MRSA15-2
  MIC: 0.015 µg/mL (≈ 0.0339 µM)
S. aureus MSSA15-1
  MIC: 0.015 µg/mL (≈ 0.0339 µM)
S. aureus MSSA15-2
  MIC: 0.015 µg/mL (≈ 0.0339 µM)
S. aureus VISA5836
  MIC: 0.015 µg/mL (≈ 0.0339 µM)
S. aureus VISA5827
  MIC: 0.015 µg/mL (≈ 0.0339 µM)
S. epidermidis MRSE15-1
  MIC: 0.015 µg/mL (≈ 0.0339 µM)
S. epidermidis MRSE15-2
  MIC: 0.015 µg/mL (≈ 0.0339 µM)
S. epidermidis MSSE15-3
  MIC: 0.015 µg/mL (≈ 0.0339 µM)
E. faecalis ATCC51575
  MIC: 0.03 µg/mL (≈ 0.0678 µM)
E. faecalis ATCC51299
  MIC: 0.015 µg/mL (≈ 0.0339 µM)
E. faecium EFM19-1
  MIC: 0.015 µg/mL (≈ 0.0339 µM)
P. aeruginosa ATCC27853
  MIC: 4 µg/mL (≈ 9.04 µM)
A. baumannii ATCC19606
  MIC: 8 µg/mL (≈ 18.1 µM)
S. aureus (ATCC29213) [12]
  MIC: ≤ 0.015 µg/mL
E. coli (ATCC25922)
  MIC: 1 µg/mL (≈ 2.26 µM)
HepG2 cells
  mitochondrial toxicity: much less toxicity
